Test results as given in paper PMC5218480 (PLoS ONE, 2017).

Tested on: MV-4-11 cells
Assay: Gene expression microarray analysis (Affymetrix PrimeView) and GSEA
Assay type: cell-based, human
Parameters: RFU PODN (11730768_x_at) / Fold change /veh PODN (11730768_x_at) / RFU LINC00158 (11744669_a_at) / Fold change /veh LINC00158 (11744669_a_at) / RFU DUSP10 (11751237_a_at) / Fold change /veh DUSP10 (11751237_a_at) / RFU ID3 (11757404_x_at) / Fold change /veh ID3 (11757404_x_at) / RFU PLEKHG5 (11737974_s_at) / Fold change /veh PLEKHG5 (11737974_s_at) / RFU LRRC4B (11730491_at) / Fold change /veh LRRC4B (11730491_at) / RFU GIMAP4 (11747438_a_at) / Fold change /veh GIMAP4 (11747438_a_at) / RFU KRT8 (11758183_x_at) / Fold change /veh KRT8 (11758183_x_at) / RFU CNN1 (11734310_a_at) / Fold change /veh CNN1 (11734310_a_at) / RFU VPS37D (11726825_at) / Fold change /veh VPS37D (11726825_at) / RFU C10orf10 (11716522_x_at) / Fold change /veh C10orf10 (11716522_x_at) / RFU KIR2DL2 /// KIR2DL4 /// KIR2DL5A /// KIR2DL5B /// KIR2DS1 /// KIR2DS2 /// KIR2DS3 /// KIR2DS4 /// KIR3DL3 /// KIR3DL3 /// KIR3DS1 (11738374_at) / Fold change /veh KIR2DL2 /// KIR2DL4 /// KIR2DL5A /// KIR2DL5B /// KIR2DS1 /// KIR2DS2 /// KIR2DS3 /// KIR2DS4 /// KIR3DL3 /// KIR3DL3 /// KIR3DS1 (11738374_at) / RFU C1QL1 (11718748_at) / Fold change /veh C1QL1 (11718748_at) / RFU TMPRSS4 (11747572_a_at) / Fold change /veh TMPRSS4 (11747572_a_at) / RFU HAMP (11756126_x_at) / Fold change /veh HAMP (11756126_x_at) / RFU RNFT2 (11725882_a_at) / Fold change /veh RNFT2 (11725882_a_at) / RFU NR4A2 (11747474_a_at) / Fold change /veh NR4A2 (11747474_a_at) / RFU ABCC12 (11746883_a_at) / Fold change /veh ABCC12 (11746883_a_at) / RFU TMEM136 (11760407_x_at) / Fold change /veh TMEM136 (11760407_x_at) / RFU CLDN22 /// WWC2 (11732394_at) / Fold change /veh CLDN22 /// WWC2 (11732394_at) / RFU HLA-DPB1 (11760878_x_at) / Fold change /veh HLA-DPB1 (11760878_x_at) / RFU SPINT1 (11716480_a_at) / Fold change /veh SPINT1 (11716480_a_at) / RFU GAP43 (11754022_s_at) / Fold change /veh GAP43 (11754022_s_at) / RFU A4GNT (11735810_at) / Fold change /veh A4GNT (11735810_at) / RFU PRB3 (11715151_x_at) / Fold change /veh PRB3 (11715151_x_at) / RFU TUBB4B (11761932_at) / Fold change /veh TUBB4B (11761932_at) / RFU CAPN14 (11732068_a_at) / Fold change /veh CAPN14 (11732068_a_at) / RFU TMCC2 (11721928_a_at) / Fold change /veh TMCC2 (11721928_a_at) / RFU IRGQ (11745062_a_at) / Fold change /veh IRGQ (11745062_a_at) / RFU FAM174B (11720279_a_at) / Fold change /veh FAM174B (11720279_a_at) / RFU TMPRSS4 (11748680_a_at) / Fold change /veh TMPRSS4 (11748680_a_at) / RFU FAM212B (11763350_a_at) / Fold change /veh FAM212B (11763350_a_at) / RFU PLEKHG5 (11743358_a_at) / Fold change /veh PLEKHG5 (11743358_a_at) / RFU ZSCAN30 (11745921_a_at) / Fold change /veh ZSCAN30 (11745921_a_at) / RFU CMKLR1 (11741424_a_at) / Fold change /veh CMKLR1 (11741424_a_at) / RFU LOC101060620 /// MAPK8IP1 (11723275_at) / Fold change /veh LOC101060620 /// MAPK8IP1 (11723275_at) / RFU SPTSSB (11747773_x_at) / Fold change /veh SPTSSB (11747773_x_at) / RFU PRSS12 (11739890_at) / Fold change /veh PRSS12 (11739890_at) / RFU BIN1 (11741810_x_at) / Fold change /veh BIN1 (11741810_x_at) / RFU WNT11 (11732464_a_at) / Fold change /veh WNT11 (11732464_a_at) / RFU C10orf10 (11716521_a_at) / Fold change /veh C10orf10 (11716521_a_at) / RFU C5orf56 (11738089_at) / Fold change /veh C5orf56 (11738089_at) / RFU CYB561 (11721691_x_at) / Fold change /veh CYB561 (11721691_x_at) / RFU ANKRD19P (11752326_a_at) / Fold change /veh ANKRD19P (11752326_a_at) / RFU OR2T12 /// OR2T33 /// OR2T8 (11738714_s_at) / Fold change /veh OR2T12 /// OR2T33 /// OR2T8 (11738714_s_at) / RFU VCAN (11748164_a_at) / Fold change /veh VCAN (11748164_a_at) / RFU JSRP1 (11732532_at) / Fold change /veh JSRP1 (11732532_at) / RFU KRTAP10-11 (11738290_x_at) / Fold change /veh KRTAP10-11 (11738290_x_at) / RFU MYO3A (11730013_a_at) / Fold change /veh MYO3A (11730013_a_at) / RFU EBF3 (11725865_a_at) / Fold change /veh EBF3 (11725865_a_at) / RFU CAMK2N1 (11719241_x_at) / Fold change /veh CAMK2N1 (11719241_x_at) / RFU C5orf56 (11738088_a_at) / Fold change /veh C5orf56 (11738088_a_at) / RFU OLFML3 (11715873_a_at) / Fold change /veh OLFML3 (11715873_a_at) / RFU LOC100653217 /// NTM (11731650_a_at) / Fold change /veh LOC100653217 /// NTM (11731650_a_at) / RFU MAPK11 (11762145_a_at) / Fold change /veh MAPK11 (11762145_a_at) / RFU FIZ1 (11724087_x_at) / Fold change /veh FIZ1 (11724087_x_at) / RFU OASL (11726364_x_at) / Fold change /veh OASL (11726364_x_at) / RFU SOX15 (11748057_x_at) / Fold change /veh SOX15 (11748057_x_at) / RFU CD79A (11719716_a_at) / Fold change /veh CD79A (11719716_a_at) / RFU HIST1H1D (11736915_at) / Fold change /veh HIST1H1D (11736915_at) / RFU CASKIN2 (11723855_a_at) / Fold change /veh CASKIN2 (11723855_a_at) / RFU LOC730098 (11760151_x_at) / Fold change /veh LOC730098 (11760151_x_at) / RFU OR4N2 (11742367_at) / Fold change /veh OR4N2 (11742367_at) / RFU PRRT2 (11749266_a_at) / Fold change /veh PRRT2 (11749266_a_at) / RFU SNX32 (11753110_a_at) / Fold change /veh SNX32 (11753110_a_at) / RFU CDHR5 (11726645_a_at) / Fold change /veh CDHR5 (11726645_a_at) / RFU RCAN1 (11760418_a_at) / Fold change /veh RCAN1 (11760418_a_at) / RFU FAM167A (11723789_a_at) / Fold change /veh FAM167A (11723789_a_at) / RFU FAM26E (11764081_at) / Fold change /veh FAM26E (11764081_at) / RFU ISYNA1 (11749810_s_at) / Fold change /veh ISYNA1 (11749810_s_at) / RFU ACY1 (11761880_at) / Fold change /veh ACY1 (11761880_at) / RFU 11764098_at / Fold change /veh 11764098_at / RFU SAMD14 (11745864_x_at) / Fold change /veh SAMD14 (11745864_x_at) / RFU NPB (11741838_a_at) / Fold change /veh NPB (11741838_a_at) / RFU TMPRSS6 (11731388_a_at) / Fold change /veh TMPRSS6 (11731388_a_at) / RFU KRTAP10-2 (11738614_at) / Fold change /veh KRTAP10-2 (11738614_at) / RFU ARHGAP8 /// PRR5-ARHGAP8 (11727945_x_at) / Fold change /veh ARHGAP8 /// PRR5-ARHGAP8 (11727945_x_at) / RFU KRTAP5-7 /// NADSYN1 (11734609_at) / Fold change /veh KRTAP5-7 /// NADSYN1 (11734609_at) / RFU RASL12 (11751679_a_at) / Fold change /veh RASL12 (11751679_a_at) / RFU CDKN2B (11736163_a_at) / Fold change /veh CDKN2B (11736163_a_at) / RFU PRF1 (11729649_at) / Fold change /veh PRF1 (11729649_at) / RFU, ZNF638 /// ZNF638-IT1 / Fold change vs veh, ZNF638 /// ZNF638-IT1 / RFU, PANK3 / Fold change vs veh, PANK3 / RFU, SH3YL1 / Fold change vs veh, SH3YL1 / RFU, ZEB2 / Fold change vs veh, ZEB2 / RFU, NRIP1 / Fold change vs veh, NRIP1 / RFU, PTTG1IP / Fold change vs veh, PTTG1IP / RFU, CAPN2 / Fold change vs veh, CAPN2 / RFU, MED14 / Fold change vs veh, MED14 / RFU, SNORA58 / Fold change vs veh, SNORA58 / RFU, C1orf63 / Fold change vs veh, C1orf63 / RFU, LRRFIP1 / Fold change vs veh, LRRFIP1 / RFU, NDUFAF7 / Fold change vs veh, NDUFAF7 / RFU, SLC12A2 / Fold change vs veh, SLC12A2 / RFU, IBTK / Fold change vs veh, IBTK / RFU, ESF1 / Fold change vs veh, ESF1 / Fold change vs veh, TMEM50B / RFU, TAOK1 / Fold change vs veh, TAOK1 / RFU, ACBD3 / Fold change vs veh, ACBD3 / RFU, TMA16 / Fold change vs veh, TMA16 / RFU, RWDD3 / Fold change vs veh, RWDD3 / RFU, BCAT1 / Fold change vs veh, BCAT1 / RFU, EDEM3 / Fold change vs veh, EDEM3 / RFU, TMEM33 / Fold change vs veh, TMEM33 / RFU, WDR75 / Fold change vs veh, WDR75 / RFU, AHCTF1 / Fold change vs veh, AHCTF1 / RFU, TFRC / Fold change vs veh, TFRC / RFU, ZDHHC17 / Fold change vs veh, ZDHHC17 / RFU, NOM1 / Fold change vs veh, NOM1 / RFU, ARL8B / Fold change vs veh, ARL8B / RFU, ZBTB11 / Fold change vs veh, ZBTB11 / RFU, TAMM41 / Fold change vs veh, TAMM41 / RFU, KIAA1704 /// LOC100996395 / Fold change vs veh, KIAA1704 /// LOC100996395 / RFU, ING1 / Fold change vs veh, ING1 / RFU, TRMT61B / Fold change vs veh, TRMT61B / RFU, FUBP3 / Fold change vs veh, FUBP3 / RFU, TP53 / Fold change vs veh, TP53 / RFU, TNKS2 / Fold change vs veh, TNKS2 / RFU, ZFP14 / Fold change vs veh, ZFP14 / RFU, ACTR2 / Fold change vs veh, ACTR2 / RFU, PPP3R1 / Fold change vs veh, PPP3R1 / RFU, PIK3R1 / Fold change vs veh, PIK3R1 / RFU, HNRNPA1 / Fold change vs veh, HNRNPA1 / RFU, RNF170 / Fold change vs veh, RNF170 / RFU, ZNF28 / Fold change vs veh, ZNF28 / RFU, RNGTT / Fold change vs veh, RNGTT / RFU, OGT / Fold change vs veh, OGT / RFU, BRD1 / Fold change vs veh, BRD1 / RFU, MARS / Fold change vs veh, MARS / RFU, ZNF655 / Fold change vs veh, ZNF655 / RFU, FAHD1 / Fold change vs veh, FAHD1 / RFU, BDP1 / Fold change vs veh, BDP1 / RFU, LRRCC1 / Fold change vs veh, LRRCC1 / RFU, ARID1A / Fold change vs veh, ARID1A / RFU, ZNF146 / Fold change vs veh, ZNF146 / RFU, ZNF330 / Fold change vs veh, ZNF330 / RFU, GPN3 / Fold change vs veh, GPN3 / RFU, C9orf123 / Fold change vs veh, C9orf123 / RFU, N4BP2L2 / Fold change vs veh, N4BP2L2 / RFU, ARFIP1 / Fold change vs veh, ARFIP1 / RFU, FAM179B / Fold change vs veh, FAM179B / RFU, BCL10 / Fold change vs veh, BCL10 / RFU, UHRF1BP1L / Fold change vs veh, UHRF1BP1L / RFU, BET1 / Fold change vs veh, BET1 / RFU, CNOT2 / Fold change vs veh, CNOT2 / RFU, ZNF268 / Fold change vs veh, ZNF268 / Fold change vs veh, ZNF507 / RFU, DGCR2 / Fold change vs veh, DGCR2 / RFU, WDSUB1 / Fold change vs veh, WDSUB1 / Fold change vs veh, HSP90B1 /// MIR3652 / RFU, ADSS / Fold change vs veh, ADSS / RFU, GK / Fold change vs veh, GK / RFU, ZNF148 / Fold change vs veh, ZNF148 / RFU, TAF9 / Fold change vs veh, TAF9 / RFU, SLC1A5 / Fold change vs veh, SLC1A5 / RFU, SLMO2 / Fold change vs veh, SLMO2 / RFU, ABCC4 / Fold change vs veh, ABCC4 / RFU, LOC101060439 /// RAP1B / Fold change vs veh, LOC101060439 /// RAP1B / RFU, RFX7 / Fold change vs veh, RFX7 / RFU, GTPBP10 / Fold change vs veh, GTPBP10 / RFU, CNEP1R1 / Fold change vs veh, CNEP1R1 / RFU, BIVM-ERCC5 /// ERCC5 / Fold change vs veh, BIVM-ERCC5 /// ERCC5 / RFU, ILF3 / Fold change vs veh, ILF3 / RFU 11762660_at / Fold change /veh 11762660_at / RFU VCAN (11757783_s_at) / Fold change /veh VCAN (11757783_s_at) / RFU DDX43 (11728927_at) / Fold change /veh DDX43 (11728927_at) / RFU KRT8 (11758188_x_at) / Fold change /veh KRT8 (11758188_x_at) / RFU NKD1 (11759106_at) / Fold change /veh NKD1 (11759106_at) / RFU SRD5A1 (11742802_a_at) / Fold change /veh SRD5A1 (11742802_a_at) / RFU TPSAB1 /// TPSB2 (11721975_s_at) / Fold change /veh TPSAB1 /// TPSB2 (11721975_s_at) / RFU GSTM3 (11746129_a_at) / Fold change /veh GSTM3 (11746129_a_at) / RFU IL23R (11737362_x_at) / Fold change /veh IL23R (11737362_x_at) / RFU TMEM51 (11727254_a_at) / Fold change /veh TMEM51 (11727254_a_at) / RFU PIWIL2 (11732686_x_at) / Fold change /veh PIWIL2 (11732686_x_at) / RFU ORM1 (11744905_x_at) / Fold change /veh ORM1 (11744905_x_at) / RFU CCDC152 (11743942_at) / Fold change /veh CCDC152 (11743942_at) / RFU ECM1 (11717891_a_at) / Fold change /veh ECM1 (11717891_a_at) / RFU IL23R (11748794_a_at) / Fold change /veh IL23R (11748794_a_at) / RFU TNFAIP8L3 (11732012_x_at) / Fold change /veh TNFAIP8L3 (11732012_x_at) / RFU MBOAT4 (11741988_at) / Fold change /veh MBOAT4 (11741988_at) / RFU 11764193_at / Fold change /veh 11764193_at / RFU TMEM53 (11763286_at) / Fold change /veh TMEM53 (11763286_at) / RFU MAGEB2 (11727129_at) / Fold change /veh MAGEB2 (11727129_at) / RFU TMEM200A (11744735_a_at) / Fold change /veh TMEM200A (11744735_a_at) / RFU CCDC152 (11751479_a_at) / Fold change /veh CCDC152 (11751479_a_at) / RFU FAM211A (11726209_a_at) / Fold change /veh FAM211A (11726209_a_at) / RFU RGS16 (11746705_a_at) / Fold change /veh RGS16 (11746705_a_at) / RFU VCAN (11755009_s_at) / Fold change /veh VCAN (11755009_s_at) / RFU RHOB (11743442_s_at) / Fold change /veh RHOB (11743442_s_at) / RFU RGS16 (11720943_a_at) / Fold change /veh RGS16 (11720943_a_at) / RFU RGS16 (11720944_at) / Fold change /veh RGS16 (11720944_at) / RFU, VPS4B / Fold change vs veh, VPS4B / RFU, CREB1 / Fold change vs veh, CREB1 / RFU, DNAJC13 / Fold change vs veh, DNAJC13 / RFU, GNAQ / Fold change vs veh, GNAQ / RFU, CDK5R1 / Fold change vs veh, CDK5R1 / RFU, ZRANB3 / Fold change vs veh, ZRANB3 / RFU, CUL4A / Fold change vs veh, CUL4A / RFU, CCNY / Fold change vs veh, CCNY / RFU, UFL1 / Fold change vs veh, UFL1 / RFU, COG3 / Fold change vs veh, COG3 / RFU, DIAPH2 / Fold change vs veh, DIAPH2 / RFU, SKA2 / Fold change vs veh, SKA2 / RFU, AFF3 / Fold change vs veh, AFF3 / RFU, LMF1 / Fold change vs veh, LMF1 / RFU, IPO11 / Fold change vs veh, IPO11 / RFU, DFFB / Fold change vs veh, DFFB / RFU, FOXP1 / Fold change vs veh, FOXP1 / RFU, CARD8 / Fold change vs veh, CARD8 / RFU, STRN3 / Fold change vs veh, STRN3 / RFU, ADK / Fold change vs veh, ADK / RFU, RASSF2 / Fold change vs veh, RASSF2 / RFU, WIPF1 / Fold change vs veh, WIPF1 / RFU, LARP1B / Fold change vs veh, LARP1B / RFU, RASA1 / Fold change vs veh, RASA1 / RFU, RB1 / Fold change vs veh, RB1 / RFU, PPFIA1 / Fold change vs veh, PPFIA1 / RFU, MAT2A / Fold change vs veh, MAT2A / RFU, CCT5 / Fold change vs veh, CCT5 / RFU, WDR92 / Fold change vs veh, WDR92 / RFU, CUX1 / Fold change vs veh, CUX1 / RFU, TTC7A / Fold change vs veh, TTC7A / RFU, TMEM135 / Fold change vs veh, TMEM135 / RFU, DEPTOR / Fold change vs veh, DEPTOR / RFU, CPM / Fold change vs veh, CPM / RFU, DNAJB6 / Fold change vs veh, DNAJB6 / RFU, CACNA2D3 / Fold change vs veh, CACNA2D3 / RFU, DTX4 / Fold change vs veh, DTX4 / RFU, TFCP2 / Fold change vs veh, TFCP2 / RFU, GMCL1 /// GMCL1P1 / Fold change vs veh, GMCL1 /// GMCL1P1 / RFU, AEBP2 / Fold change vs veh, AEBP2 / RFU, SNHG1 /// SNORD22 /// SNORD25 /// SNORD26 /// SNORD27 /// SNORD28 /// SNORD29 /// SNORD31 / Fold change vs veh, SNHG1 /// SNORD22 /// SNORD25 /// SNORD26 /// SNORD27 /// SNORD28 /// SNORD29 /// SNORD31 / Fold change (Aza/veh), C12orf56 (ProbeSet 11735607_a_at) / Fold change (ACY-1035/veh), C12orf56 (ProbeSet 11735607_a_at) / Fold change (Aza/veh), FGFR1OP (ProbeSet 11751329_s_at) / Fold change (ACY-1035/veh), FGFR1OP (ProbeSet 11751329_s_at) / Fold change (Aza/veh), VPS36 (ProbeSet 11739960_a_at) / Fold change (ACY-1035/veh), VPS36 (ProbeSet 11739960_a_at) / RFU SYPL1 (11715823_x_at) / Fold change /veh SYPL1 (11715823_x_at) / RFU IGFBP7 (11715501_s_at) / Fold change /veh IGFBP7 (11715501_s_at) / RFU REEP3 (11722064_at) / Fold change /veh REEP3 (11722064_at) / RFU IGLL1 (11728026_x_at) / Fold change /veh IGLL1 (11728026_x_at): dose or concentration left out as unconfirmed
Conditions: MV-4-11 cells, 48 hours

Nc1ccc(-c2cccs2)cc1NC(=O)c1ccc2c(c1)cc(C1CC1)n2CCN1CCOCC1 [ACY-1035]
Fold change /veh JSRP1 (11732532_at): 0.91
